Here are results for three compounds from patent publication US6503307B1, “Ink set, printing method, ink, printed article, printing apparatus, ink cartridge, recording unit, and process of forming polymeric compound films” (Canon Kabushiki Kaisha, priority 1999, dated 2003).

Data set [1] can be described thus: Reactivity: time for gel formation on mixing 50% solutions. In kind it is physicochemical. The settings on record: 50% solution of Group B compound with aqueous 50% solution of Compound A-1.
The nature of a further data set: Solubility in water. In kind it is physicochemical. Conditions: highest concentration forming a uniform transparent aqueous solution. An excerpt:
In Table 1, the water solubility is shown by the highest concentration of the compound for forming a uniform transparent aqueous solution.

A value given as a limit tells only on which side of the number the result lay.

Regarding `CCC(CS)(CS)CS` [Compound B-10], in data set [1], the “Time for gel formation” value was determined as 600 s. Moreover, the Solubility in the data set “Solubility in water” is given as over 30%.
With `SCC(S)CS` [Compound B-8], in data set [1], the “Time for gel formation” value amounted to 600 s. Also, in the data set “Solubility in water”, the Solubility was over 30%.
Consider `NC1C(O)OC(CO)C(O)C1O` (stereo not drawn) [Compound B-4], for which the “Time for gel formation” value in data set [1] amounted to 600 s. Also, the Solubility in the data set “Solubility in water” is listed as 20%.
